Converted amounts (≈) assume the structure as drawn.
Columns and labels:
Assay type in all cases: cell-based
[1] = test system: Klebsiella pneumoniae 602; assay: Minimum Inhibitory Concentration, Klebsiella pneumoniae 602; conditions: Klebsiella pneumoniae, 602, Klebsiella pneumoniae 602; read-out: Minimum Inhibitory Concentration
Method: (§1) anti-microbial activity tests were carried out on the compounds obtained in the Examples.

Escherichia coli NIHJ = assay: Minimum Inhibitory Concentration, Escherichia coli NIHJ; conditions: Escherichia coli NIHJ; read-out: Minimum Inhibitory Concentration
Method: as §1

[2] = test system: Enterobacter aerogeneus No. 75; assay: Minimum Inhibitory Concentration, Enterobacter aerogeneus No. 75; conditions: Enterobacter aerogeneus No. 75; read-out: Minimum Inhibitory Concentration
Method: as §1

[3] = test system: Staphylococcus aureus 209 P; assay: Minimum Inhibitory Concentration, Staphylococcus aureus 209 P; conditions: Staphylococcus aureus 209 P; read-out: Minimum Inhibitory Concentration
Method: as §1

[4] = test system: Staphylococcus aureus FS 289; assay: Minimum Inhibitory Concentration, Staphylococcus aureus FS 289; conditions: FS289; Staphylococcus aureus FS 289, strain resistant to penicillin; read-out: Minimum Inhibitory Concentration
Method: as §1
*Staphylococcus aureus FS 289: strain resistant to penicillin

Proteus vulgaris HX 19 = assay: Minimum Inhibitory Concentration, Proteus vulgaris HX 19; conditions: HX19; Proteus vulgaris HX 19; read-out: Minimum Inhibitory Concentration
Method: as §1

[5] = test system: Pseudomonas aeruginosa 104; assay: Minimum Inhibitory Concentration, Pseudomonas aeruginosa 104; conditions: Pseudomonas aeruginosa 104; read-out: Minimum Inhibitory Concentration
Method: as §1

Serratia No. 72 = assay: Minimum Inhibitory Concentration, Serratia No. 72
Method: as §1

With `Cc1nnc(SCC2=C(C(=O)O)N3C(=O)C(NC(=O)C(NC(=O)c4cnccc4O)c4ccc(O)c(O)c4)C3SC2)s1` (stereo not shown) [Example 183] the MIC [1] was 12.5 µg/mL (≈ 19.8 µM), the MIC (Escherichia coli NIHJ) was 6.25 µg/mL (≈ 9.91 µM) and the MIC [2] was 12.5 µg/mL (≈ 19.8 µM). The MIC [3] was 0.78 µg/mL (≈ 1.24 µM), the MIC [4] was 6.25 µg/mL (≈ 9.91 µM) and the MIC (Proteus vulgaris HX 19) was 0.39 µg/mL (≈ 0.618 µM). The MIC [5] was 6.25 µg/mL (≈ 9.91 µM) and the MIC (Serratia No. 72) was 50 µg/mL (≈ 79.3 µM).
Compound `O=C(O)C1=C(CSc2nnc(CO)s2)CSC2C(NC(=O)C(NC(=O)c3cnccc3O)c3ccc(O)c(O)c3)C(=O)N12` (stereo not shown) [Example 184] has an MIC [1] of 12.5 µg/mL (≈ 19.3 µM), an MIC (Escherichia coli NIHJ) of 6.25 µg/mL (≈ 9.66 µM) and an MIC [2] of 12.5 µg/mL (≈ 19.3 µM). The MIC [3] was 0.78 µg/mL (≈ 1.21 µM), the MIC [4] was 6.25 µg/mL (≈ 9.66 µM) and the MIC (Proteus vulgaris HX 19) was 0.78 µg/mL (≈ 1.21 µM). For the same compound, the MIC [5] was 6.25 µg/mL (≈ 9.66 µM) and the MIC (Serratia No. 72) was 50 µg/mL (≈ 77.3 µM).
Compound `Cn1nnnc1SCC1=C(C(=O)O)N2C(=O)C(NC(=O)C(NC(=O)c3cnccc3O)c3ccc(O)c(O)c3)C2SC1` (stereo not shown) [Example 185] has an MIC [1] of 6.25 µg/mL (≈ 10.2 µM), an MIC (Escherichia coli NIHJ) of 6.25 µg/mL (≈ 10.2 µM) and an MIC [2] of 12.5 µg/mL (≈ 20.3 µM). The MIC [3] was 0.78 µg/mL (≈ 1.27 µM), the MIC [4] was 6.25 µg/mL (≈ 10.2 µM) and the MIC (Proteus vulgaris HX 19) was 0.39 µg/mL (≈ 0.635 µM). For the same compound, the MIC [5] was 6.25 µg/mL (≈ 10.2 µM) and the MIC (Serratia No. 72) was 50 µg/mL (≈ 81.4 µM).
In the case of `O=C(O)C1=C(CSc2cnn[nH]2)CSC2C(NC(=O)C(NC(=O)c3cnccc3O)c3ccc(O)c(O)c3)C(=O)N12` (stereo not shown) [Example 186], the MIC [1] was 12.5 µg/mL (≈ 20.8 µM), the MIC (Escherichia coli NIHJ) was 6.25 µg/mL (≈ 10.4 µM) and the MIC [2] was 12.5 µg/mL (≈ 20.8 µM). For the same compound, the MIC [3] was 0.78 µg/mL (≈ 1.3 µM), the MIC [4] was 6.25 µg/mL (≈ 10.4 µM) and the MIC (Proteus vulgaris HX 19) was 0.78 µg/mL (≈ 1.3 µM). For the same compound, the MIC [5] was 12.5 µg/mL (≈ 20.8 µM) and the MIC (Serratia No. 72) was 50 µg/mL (≈ 83.4 µM).
`Cn1nnnc1SCC1=C(C(=O)O)N2C(=O)C(NC(=O)C(NC(=O)c3cnccc3O)c3ccc(O)c(F)c3)C2SC1` (stereo not shown) [Example 187] showed an MIC [1] of 12.5 µg/mL (≈ 20.3 µM), an MIC (Escherichia coli NIHJ) of 6.25 µg/mL (≈ 10.1 µM) and an MIC [2] of 12.5 µg/mL (≈ 20.3 µM). It also gave an MIC [3] of 0.78 µg/mL (≈ 1.26 µM), an MIC [4] of 6.25 µg/mL (≈ 10.1 µM) and an MIC (Proteus vulgaris HX 19) of 0.39 µg/mL (≈ 0.632 µM). For the same compound, the MIC [5] was 6.25 µg/mL (≈ 10.1 µM) and the MIC (Serratia No. 72) was 50 µg/mL (≈ 81.1 µM).
